Experimental data as given in the supplement of paper PMC10307832.

Experiments:
Assay in all cases: relative viability (nuclei count vs DMSO), 5 days (fraction); higher = more cells survive
[1] = compound: Cc1ccc(F)c(NC(=O)Nc2ccc(-c3cccc4[nH]nc(N)c34)cc2)c1 [Linifanib] + O=C(CCCCCCC(=O)Nc1ccccc1)NO [Vorinostat] (partner 1 µM)
Summary of the method: (§1)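 Dosing by pin tool came one day after lung cancer cell lines were seeded in 1536-well plates, using either one drug or a fixed anchor-drug dose plus five library-drug doses (not always all listed) in √10 steps. After 5 days, nuclei were counted on 4× images. Relative viability is treated-well nuclei count divided by vehicle-well nuclei count, and values are medians of duplicate plates.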

[2] = compound: Cc1ccc(F)c(NC(=O)Nc2ccc(-c3cccc4[nH]nc(N)c34)cc2)c1 [Linifanib] + CC(C)C[C@H](NC(=O)[C@H](Cc1ccccc1)NC(=O)c1cnccn1)B(O)O [Bortezomib] (partner 0.002 µM)
Summary of the method: as §1

[3] = compound: Cc1ccc(F)c(NC(=O)Nc2ccc(-c3cccc4[nH]nc(N)c34)cc2)c1 [Linifanib] + O=C(c1cc(Cc2n[nH]c(=O)c3ccccc23)ccc1F)N1CCN(C(=O)C2CC2)CC1 [Olaparib] (partner 8 µM)
Summary of the method: as §1

[4] = compound: Cc1ccc(F)c(NC(=O)Nc2ccc(-c3cccc4[nH]nc(N)c34)cc2)c1 [Linifanib] + CC1(C)CCC(c2ccc(Cl)cc2)=C(CN2CCN(c3ccc(C(=O)NS(=O)(=O)c4ccc(N[C@H](CCN5CCOCC5)CSc5ccccc5)c(S(=O)(=O)C(F)(F)F)c4)cc3)CC2)C1 [Navitoclax] (partner 0.5 µM)
Summary of the method: as §1

[5] = compound: Cc1ccc(F)c(NC(=O)Nc2ccc(-c3cccc4[nH]nc(N)c34)cc2)c1 [Linifanib] + NC(=O)Nc1cc(-c2cccc(F)c2)sc1C(=O)N[C@H]1CCCNC1 [AZD7762] (partner 0.2 µM)
Summary of the method: as §1

[6] = compound: Cc1ccc(F)c(NC(=O)Nc2ccc(-c3cccc4[nH]nc(N)c34)cc2)c1 [Linifanib] + Nc1ncn([C@H]2C[C@H](O)[C@@H](CO)O2)c(=O)n1 [Decitabine] (partner 2 µM)
Summary of the method: as §1

Cell Line	relative viability ([1]; first compound 0.03162 µM)	relative viability ([1]; first compound 0.1 µM)	relative viability ([1]; first compound 0.3162 µM)	relative viability ([2]; first compound 0.03162 µM)	relative viability ([2]; first compound 0.1 µM)	relative viability ([2]; first compound 0.3162 µM)	relative viability ([3]; first compound 0.03162 µM)	relative viability ([3]; first compound 0.1 µM)	relative viability ([3]; first compound 0.3162 µM)	relative viability ([4]; first compound 0.03162 µM)	relative viability ([4]; first compound 0.1 µM)	relative viability ([4]; first compound 0.3162 µM)	relative viability ([5]; first compound 0.03162 µM)	relative viability ([5]; first compound 0.1 µM)	relative viability ([5]; first compound 0.3162 µM)	relative viability ([6]; first compound 0.03162 µM)	relative viability ([6]; first compound 0.1 µM)	relative viability ([6]; first compound 0.3162 µM)
EKVX	0.731	0.774	0.75	0.863	1.03	0.698	0.953	0.868	0.914	0.973	1.15	0.868	0.78	0.873	0.808	0.314	0.359	0.35
EMC-BAC-2	0.47	0.465	0.426	1.11	1.13	1.12	0.508	0.498	0.487	1.19	1.17	1.15	1.18	1.21	1.09	1.01	1.03	0.951
EPLC-272H	0.522	0.467	0.513	1.21	1.04	0.785	0.728	1.05	0.722	1.09	1.09	0.962	0.226	0.448	0.205	0.352	0.435	0.362
H3255	0.788	0.795	0.812	0.809	0.781	0.728	0.619	0.567	0.574	0.557	0.642	0.562	0.868	0.925	0.853	0.559	0.667	0.615
HARA	0.598	0.479	0.579	1.14	1.11	1.06	0.855	0.837	0.745	1.16	1.12	1.05	0.402	0.445	0.387	0.599	0.61	0.61
HCC-15	0.796	0.838	0.792	1.04	0.99	0.988	0.827	0.772	0.706	0.651	0.776	0.682	0.922	1.18	1.12	0.745	0.693	0.629
HCC-44	1.22	1.04	1.14	0.925	0.915	0.818	1.02	0.916	0.952	1.05	0.956	0.942	1.09	0.914	1.04	0.984	0.862	0.961
LCLC-103H	0.848	0.764	0.734	1.19	1.16	1.15	0.752	0.78	0.732				0.892	0.721	0.792	0.75	0.667	0.696
